In paper PMC9369007 (International Journal of Molecular Sciences, 2022):

Assays:
LSD1 = conditions: Figure 1, reported LSD1 inhibitors; cited from earlier work
HepG2 cells = assay: MTT cytotoxicity assay, HepG2; conditions: Homo sapiens, HepG2, 72 h, read-out: In Vitro Cytotoxicity IC50 HepG2
Protocol: (§1) The in vitro cytotoxic testing of novel derivatives was performed against different three cancer cell lines, HepG2, MCF-7, and HCT116, using standard MTT assay as previously reported [22, 62, 63, 64].

MCF-7 cells = assay: MTT cytotoxicity assay, MCF-7; conditions: Homo sapiens, MCF7, 72 h, read-out: In Vitro Cytotoxicity IC50 MCF-7
Protocol: as §1

LSD1 demethylase = LSD1 demethylase (Homo sapiens, UniProt O60341); assay: LSD1 demethylase inhibition assay
Protocol: The inhibition of LSD1 activity by our tested compounds was evaluated according to a previously reported procedure [65, 66, 67, 68] and as mentioned in the assay kit in Supplementary Materials.

HCT116 cells = assay: MTT cytotoxicity assay, HCT116; conditions: Homo sapiens, HCT-116, 72 h, read-out: In Vitro Cytotoxicity IC50 HCT116
Protocol: as §1

HepG2 and MCF-7 cells = assay: DNA fragmentation, diphenylamine test; assay type: cell-based, human; conditions: 24 h at IC50 value, untreated control about 4.7 ± 0.2%
Protocol: Apoptosis is characterized by DNA fragmentation, which occurs in all stages of the process. The percentage of fragmented DNA released into the cytoplasm from apoptotic nuclei was determined using a diphenylamine test.
DNA fragmentation was quantitatively determined using a diphenylamine (DPA) reagent according to the method of Boraschi and Maurizi.

in vitro = conditions: human, WI38 normal lung fibroblast cells
[1] = LSD1 inhibitory IC50, Table 2, mean ± S.D., at least three tests
[2] = LSD1 inhibition IC50, as quoted in the docking section

SMILES | IC50 (LSD1) [µM] | IC50 (HepG2 cells) [µM] | IC50 (MCF-7 cells) [µM] | melting point [°C] | IC50 (LSD1 demethylase; [1]) [µM] | IC50 (HCT116 cells) [µM] | Percentage of DNA fragmentation (HepG2 and MCF-7 cells) | IC50 at 72 h (in vitro) [µM] | IC50 (LSD1 demethylase; [2]) [µM]
CCCSc1nc(Sc2nnc(C)s2)c2nnn(CCO)c2n1 [Compound 7] | 3.93 |  |  |  |  |  |  |  | 
Cc1ccc(Cn2cc(CSC(=S)N3CCN(C(=O)OC(C)(C)C)CC3)nn2)cc1 [Compound 8] | 0.65 |  |  |  |  |  |  |  | 
Cn1c(-c2cc(-c3n[nH]c(=S)n3C)cc(-c3n[nH]c(=S)n3C)c2)n[nH]c1=S [Compound 18, 3,3′,3″-(benzene-1,3,5-triyl)tris(4-methyl-1H-1,2,4-triazole-5(4H)-thione)] |  | 26.1 ± 0.76 | 23.9 ± 0.52 | 279 to 281 | 1.51 ± 0.075 | 38.6 ± 0.75 |  |  | 
CCn1c(-c2cc(-c3n[nH]c(=S)n3CC)cc(-c3n[nH]c(=S)n3CC)c2)n[nH]c1=S [Compound 19, 3,3′,3″-(benzene-1,3,5-triyl)tris(4-ethyl-1H-1,2,4-triazole-5(4H)-thione)] |  | 55.3 ± 0.44 | 9.66 ± 0.76 | 266 to 268 | 0.17 ± 0.008 | 21.6 ± 0.16 |  |  | 
S=c1[nH]nc(-c2cc(-c3n[nH]c(=S)n3C3CCCCC3)cc(-c3n[nH]c(=S)n3C3CCCCC3)c2)n1C1CCCCC1 [Compound 20, 3,3′,3″-(benzene-1,3,5-triyl)tris(4-cyclohexyl-1H-1,2,4-triazole-5(4H)-thione)] |  | 2.65 ± 0.69 | 13.7 ± 0.41 | 251 to 252 | 0.137 ± 0.006 | 10.1 ± 0.37 | approximately 28.5 ± 1.5% |  | 
C=CCn1c(-c2cc(-c3n[nH]c(=S)n3CC=C)cc(-c3n[nH]c(=S)n3CC=C)c2)n[nH]c1=S [Compound 21, 3,3′,3″-(benzene-1,3,5-triyl)tris(4-allyl-1H-1,2,4-triazole-5(4H)-thione)] |  | 2.36 ± 0.34 | 5.83 ± 0.18 | 287 to 288 | 0.32 ± 0.016 | 3.56 ± 0.22 |  |  | 
S=c1[nH]nc(-c2cc(-c3n[nH]c(=S)n3Cc3ccccc3)cc(-c3n[nH]c(=S)n3Cc3ccccc3)c2)n1Cc1ccccc1 [Compound 22, 3,3′,3″-(benzene-1,3,5-triyl)tris(4-benzyl-1H-1,2,4-triazole-5(4H)-thione)] |  | 8.23 ± 0.85 | 2.65 ± 0.23 | 240 to 241 | 0.074 ± 0.002 | 5.27 ± 0.16 |  | 16 ± 0.52 | 0.0464
S=c1[nH]nc(-c2cc(-c3n[nH]c(=S)n3-c3ccccc3)cc(-c3n[nH]c(=S)n3-c3ccccc3)c2)n1-c1ccccc1 [Compound 23, 3,3′,3″-(benzene-1,3,5-triyl)tris(4-phenyl-1H-1,2,4-triazole-5(4H)-thione)] |  | 5.49 ± 0.38 | 26.1 ± 0.69 | 229 to 230 | 0.065 ± 0.003 | 2.01 ± 0.91 |  |  | 0.0651
CNc1nnc(-c2cc(-c3nnc(NC)s3)cc(-c3nnc(NC)s3)c2)s1 [Compound 24, 5,5′,5″-(benzene-1,3,5-triyl)tris(N-methyl-1,3,4-thiadiazol-2-amine)] |  | 6.47 ± 0.69 | 9.2 ± 0.31 | 247 to 248 | 0.45 ± 0.022 | 18.1 ± 1.05 |  |  | 
CCNc1nnc(-c2cc(-c3nnc(NCC)s3)cc(-c3nnc(NCC)s3)c2)s1 [Compound 25, 5,5′,5″-(benzene-1,3,5-triyl)tris(N-ethyl-1,3,4-thiadiazol-2-amine)] |  | 13 ± 0.71 | 28.1 ± 1.1 | 233 to 234 | 0.14 ± 0.007 | 28.9 ± 0.32 |  |  | 
c1c(-c2nnc(NC3CCCCC3)s2)cc(-c2nnc(NC3CCCCC3)s2)cc1-c1nnc(NC2CCCCC2)s1 [Compound 26, 5,5′,5″-(benzene-1,3,5-triyl)tris(N-cyclohexyl-1,3,4-thiadiazol-2-amine)] |  | 95.7 ± 3.1 | 17.1 ± 3.1 | 218 to 219 | 0.311 ± 0.015 | 17.6 ± 0.71 |  |  | 
c1ccc(Nc2nnc(-c3cc(-c4nnc(Nc5ccccc5)s4)cc(-c4nnc(Nc5ccccc5)s4)c3)s2)cc1 [Compound 28, 5,5′,5″-(benzene-1,3,5-triyl)tris(N-phenyl-1,3,4-thiadiazol-2-amine)] |  | 25.6 ± 0.18 | 2.34 ± 2.3 | 204 to 205 | 0.21 ± 0.01 | 110 ± 0.85 |  |  | 
CC(=O)O[C@H]1C(=O)[C@@]2(C)[C@H]([C@H](OC(=O)c3ccccc3)[C@]3(O)C[C@H](OC(=O)[C@H](O)[C@@H](NC(=O)c4ccccc4)c4ccccc4)C(C)=C1C3(C)C)[C@]1(OC(C)=O)CO[C@@H]1C[C@@H]2O [Taxol, reference compound] |  | 4.44 ± 0.24 | 7.8 ± 0.42 |  |  | 7.96 ± 0.38 |  | 11.8 ± 0.44 | 
